Measurements as given in US20240360082A1, “SUBSTITUTED PYRIDONE COMPOUNDS USEFUL TO TREAT ORTH[…]” (priority 2021, published 2024).

target: influenza A virus minigenome (PB2, PB1, PA, NP proteins) (UniProt P04665); type: cell-based; conditions: read-out: RNP_ Hubei B IC50
Sequence (P04665 whole entry): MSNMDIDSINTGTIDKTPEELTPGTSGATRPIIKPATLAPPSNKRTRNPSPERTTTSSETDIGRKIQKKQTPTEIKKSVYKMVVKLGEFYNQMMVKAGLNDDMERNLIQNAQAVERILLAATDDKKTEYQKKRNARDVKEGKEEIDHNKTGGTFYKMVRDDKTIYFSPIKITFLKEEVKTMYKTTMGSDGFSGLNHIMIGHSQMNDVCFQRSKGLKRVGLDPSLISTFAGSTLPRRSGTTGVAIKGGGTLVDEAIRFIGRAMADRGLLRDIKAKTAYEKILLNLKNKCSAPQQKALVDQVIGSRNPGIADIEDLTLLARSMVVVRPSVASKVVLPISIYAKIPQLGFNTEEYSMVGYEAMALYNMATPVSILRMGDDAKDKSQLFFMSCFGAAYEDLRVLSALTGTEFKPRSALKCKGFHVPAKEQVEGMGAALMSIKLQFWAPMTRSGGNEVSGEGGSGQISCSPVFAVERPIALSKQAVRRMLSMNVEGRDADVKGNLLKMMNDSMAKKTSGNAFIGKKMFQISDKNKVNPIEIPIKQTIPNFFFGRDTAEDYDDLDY

SMILES	IC50
NC(=O)c1cc(-c2ccc(OCC3COCC(Cn4cccn4)O3)cc2)c(C(F)(F)F)[nH]c1=O (single isomer, unassigned) [Example 377, 5-(4-((6-((1H-pyrazol-1-yl)methyl)-1,4-dioxan-2-yl)methoxy)phenyl)-2-oxo-6-(trifluoromethyl)-1,2-dihydropyridine-3-carboxamide]	5 to 10 µM
NC(=O)c1cc(-c2ccc(OCC3COC(C(F)F)CO3)cc2)c(C(F)(F)F)[nH]c1=O (single isomer, unassigned) [Example 344, 5-(4-((5-(difluoromethyl)-1,4-dioxan-2-yl)methoxy)phenyl)-2-oxo-6-(trifluoromethyl)-1,2-dihydropyridine-3-carboxamide]	5 to 10 µM
NC(=O)c1cc(-c2ccc(OCC3CCO3)cc2)c(C(F)(F)F)[nH]c1=O (stereo not drawn) [Example 225, 5-(4-(oxetan-2-ylmethoxy)phenyl)-2-oxo-6-(trifluoromethyl)-1,2-dihydropyridine-3-carboxamide]	25 to 50 µM
NC(=O)c1cc(-c2ccc(OCC3COCC(Cn4cccc4)O3)cc2)c(C(F)(F)F)[nH]c1=O (single isomer, unassigned) [Example 374, 5-(4-((6-((1H-pyrrol-1-yl)methyl)-1,4-dioxan-2-yl)methoxy)phenyl)-2-oxo-6-(trifluoromethyl)-1,2-dihydropyridine-3-carboxamide]	5 to 10 µM
NC(=O)c1cc(-c2ccc(OC[C@@H]3COCC4(COCCOC4)O3)cc2)c(C(F)(F)F)[nH]c1=O [Example 416, (S)-5-(4-((1,4,8,11-tetraoxaspiro[5.6]dodecan-2-yl)methoxy)phenyl)-2-oxo-6-(trifluoromethyl)-1,2-dihydropyridine-3-carboxamide]	5 to 10 µM
CC(F)(F)C1COCC(COc2ccc(-c3cc(C(N)=O)c(=O)[nH]c3C(F)(F)F)cc2)O1 (single isomer, unassigned) [Example 358, 5-(4-((6-(1,1-difluoroethyl)-1,4-dioxan-2-yl)methoxy)phenyl)-2-oxo-6-(trifluoromethyl)-1,2-dihydropyridine-3-carboxamide]	5 to 10 µM
C[C@]1(CCF)COC[C@@H](COc2ccc(-c3cc(C(N)=O)c(=O)[nH]c3C(F)(F)F)cc2)O1 [Example 435, 5-(4-(((2S,6S)-6-(2-fluoroethyl)-6-methyl-1,4-dioxan-2-yl)methoxy)phenyl)-2-oxo-6-(trifluoromethyl)-1,2-dihydropyridine-3-carboxamide]	5 to 10 µM
COCC[C@@]1(C)COC[C@@H](COc2ccc(-c3cc(C(N)=O)c(=O)[nH]c3C(F)(F)F)cc2)O1 [Example 426, 5-(4-(((2S,6S)-6-(2-methoxyethyl)-6-methyl-1,4-dioxan-2-yl)methoxy)phenyl)-2-oxo-6-(trifluoromethyl)-1,2-dihydropyridine-3-carboxamide]	5 to 10 µM
COC[C@@]1(CF)COC[C@@H](COc2ccc(-c3cc(C(N)=O)c(=O)[nH]c3C(F)(F)F)cc2)O1 [Example 417, 5-(4-(((2S,6S)-6-(fluoromethyl)-6-(methoxymethyl)-1,4-dioxan-2-yl)methoxy)phenyl)-2-oxo-6-(trifluoromethyl)-1,2-dihydropyridine-3-carboxamide]	5 to 10 µM
C[C@]1(CO)COC[C@@H](COc2ccc(-c3cc(C(N)=O)c(=O)[nH]c3C(F)(F)F)cc2)O1 [Example 433, 5-(4-(((2S,6S)-6-(hydroxymethyl)-6-methyl-1,4-dioxan-2-yl)methoxy)phenyl)-2-oxo-6-(trifluoromethyl)-1,2-dihydropyridine-3-carboxamide]	5 to 10 µM
C[C@]1(COCC(F)(F)F)COC[C@@H](COc2ccc(-c3cc(C(N)=O)c(=O)[nH]c3C(F)(F)F)cc2)O1 [Example 432, 5-(4-(((2S,6R)-6-methyl-6-((2,2,2-trifluoroethoxy)methyl)-1,4-dioxan-2-yl)methoxy)phenyl)-2-oxo-6-(trifluoromethyl)-1,2-dihydropyridine-3-carboxamide]	5 to 10 µM
CN(C)C[C@@]1(C)COC[C@@H](COc2ccc(-c3cc(C(N)=O)c(=O)[nH]c3C(F)(F)F)cc2)O1 [Example 423, 5-(4-(((2S,6S)-6-((dimethylamino)methyl)-6-methyl-1,4-dioxan-2-yl)methoxy)phenyl)-2-oxo-6-(trifluoromethyl)-1,2-dihydropyridine-3-carboxamide]	5 to 10 µM
COC[C@]1(C)COC[C@@H](COc2ccc(-c3cc(C(N)=O)c(=O)[nH]c3C(F)(F)F)cc2)O1 [Example 406, 5-(4-(((2S,6R)-6-(methoxymethyl)-6-methyl-1,4-dioxan-2-yl)methoxy)phenyl)-2-oxo-6-(trifluoromethyl)-1,2-dihydropyridine-3-carboxamide]	5 to 10 µM
Cc1cncc(COc2ccc(-c3cc(C(N)=O)c(=O)[nH]c3C(F)(F)F)cc2)n1 [Example 283, 5-(4-((6-methylpyrazin-2-yl)methoxy)phenyl)-2-oxo-6-(trifluoromethyl)-1,2-dihydropyridine-3-carboxamide]	5 to 10 µM
COC[C@@]1(C)COC[C@H](COc2ccc(-c3cc(C(N)=O)c(=O)[nH]c3C(F)(F)F)cc2)O1 [Example 408, 5-(4-(((2R,6S)-6-(methoxymethyl)-6-methyl-1,4-dioxan-2-yl)methoxy)phenyl)-2-oxo-6-(trifluoromethyl)-1,2-dihydropyridine-3-carboxamide]	5 to 10 µM
NC(=O)c1cc(-c2ccc(OC[C@H]3CO[C@H]4[C@@H](O3)C4(F)F)cc2)c(C(F)(F)F)[nH]c1=O [Example 391, 5-(4-((trans-7,7-difluoro-2,5-dioxabicyclo[4.1.0]heptan-3-yl)methoxy)phenyl)-2-oxo-6-(trifluoromethyl)-1,2-dihydropyridine-3-carboxamide]	1 to 5 µM
CCN1CCOCC1COc1ccc(-c2cc(C(N)=O)c(=O)[nH]c2C(F)(F)F)cc1 (stereo not drawn) [Example 249, 5-(4-((4-ethylmorpholin-3-yl)methoxy)phenyl)-2-oxo-6-(trifluoromethyl)-1,2-dihydropyridine-3-carboxamide]	5 to 10 µM
CC1(OC[C@@]2(C)COC[C@@H](COc3ccc(-c4cc(C(N)=O)c(=O)[nH]c4C(F)(F)F)cc3)O2)COC1 [Example 429]	5 to 10 µM

same assay, conditions: read-out: RNP_Hubei B

SMILES	IC50
NC(=O)c1cc(-c2ccc(OCc3cncnc3)cc2)c(C(F)(F)F)[nH]c1=O [Example 82, 2-oxo-5-(4-(pyrimidin-5-ylmethoxy)phenyl)-6-(trifluoromethyl)-1,2-dihydropyridine-3-carboxamide]	25 to 50 µM
NC(=O)c1cc(-c2ccccc2)c(C(F)(F)F)[nH]c1=O [Example 16, 2-oxo-5-phenyl-6-(trifluoromethyl)-1,2-dihydropyridine-3-carboxamide]	25 to 50 µM
NC(=O)c1cc(-c2cccc(N)c2)c(C(F)(F)F)[nH]c1=O [Example 7, 5-(3-aminophenyl)-2-oxo-6-(trifluoromethyl)-1,2-dihydropyridine-3-carboxamide]	25 to 50 µM
N#CCc1ccc(-c2cc(C(N)=O)c(=O)[nH]c2C(F)(F)F)cc1 [Example 20, 5-(4-(cyanomethyl)phenyl)-2-oxo-6-(trifluoromethyl)-1,2-dihydropyridine-3-carboxamide]	25 to 50 µM
NC(=O)c1cc(-c2ccc(O)cc2)c(C(F)(F)F)[nH]c1=O [Example 3, 5-(4-hydroxyphenyl)-2-oxo-6-(trifluoromethyl)-1,2-dihydropyridine-3-carboxamide]	25 to 50 µM
NC(=O)c1cc(-c2ccc(OCc3ccccc3)cc2)c(C(F)(F)F)[nH]c1=O [Example 4, 5-(4-(benzyloxy)phenyl)-2-oxo-6-(trifluoromethyl)-1,2-dihydropyridine-3-carboxamide]	5 to 10 µM
Cn1nccc1COc1ccc(-c2cc(C(N)=O)c(=O)[nH]c2C(F)(F)F)cc1 [Example 126, 5-(4-((1-methyl-1H-pyrazol-5-yl)methoxy)phenyl)-2-oxo-6-(trifluoromethyl)-1,2-dihydropyridine-3-carboxamide]	25 to 50 µM
NC(=O)c1cc(-c2ccc(OCC3CN(CC4CC4)CCO3)cc2)c(C(F)(F)F)[nH]c1=O (stereo not drawn) [Example 194, 5-(4-((4-(cyclopropylmethyl)morpholin-2-yl)methoxy)phenyl)-2-oxo-6-(trifluoromethyl)-1,2-dihydropyridine-3-carboxamide]	25 to 50 µM
NC(=O)c1cc(-c2ccc(OCc3ccccc3[N+](=O)[O-])cc2)c(C(F)(F)F)[nH]c1=O [Example 76, 5-(4-((2-nitrobenzyl)oxy)phenyl)-2-oxo-6-(trifluoromethyl)-1,2-dihydropyridine-3-carboxamide]	10 to 25 µM
CC(Oc1ccc(-c2cc(C(N)=O)c(=O)[nH]c2C(F)(F)F)cc1)c1cncnc1 (single isomer, unassigned) [Example 96, (R or S)-2-oxo-5-(4-(1-(pyrimidin-5-yl)ethoxy)phenyl)-6-(trifluoromethyl)-1,2-dihydropyridine-3-carboxamide]	25 to 50 µM
CC1COCCN1Cc1ccc(-c2cc(C(N)=O)c(=O)[nH]c2C(F)(F)F)cc1 (stereo not drawn) [Example 27, 5-(4-((3-methylmorpholino)methyl)phenyl)-2-oxo-6-(trifluoromethyl)-1,2-dihydropyridine-3-carboxamide]	10 to 25 µM
COC1CN(Cc2ccc(-c3cc(C(N)=O)c(=O)[nH]c3C(F)(F)F)cc2)C1 [Example 38, 5-(4-((3-methoxyazetidin-1-yl)methyl)phenyl)-2-oxo-6-(trifluoromethyl)-1,2-dihydropyridine-3-carboxamide]	25 to 50 µM
NC(=O)c1cc(-c2ccc(OCc3ccc4cc[nH]c4c3)cc2)c(C(F)(F)F)[nH]c1=O [Example 86, 5-(4-((1H-indol-6-yl)methoxy)phenyl)-2-oxo-6-(trifluoromethyl)-1,2-dihydropyridine-3-carboxamide]	5 to 10 µM
NC(=O)c1cc(-c2ccc(OCc3ccncc3)cc2)c(C(F)(F)F)[nH]c1=O [Example 70, 2-oxo-5-(4-(pyridin-4-ylmethoxy)phenyl)-6-(trifluoromethyl)-1,2-dihydropyridine-3-carboxamide]	25 to 50 µM
NC(=O)c1cc(-c2ccc(COc3cccnc3)cc2)c(C(F)(F)F)[nH]c1=O [Example 177, 2-oxo-5-(4-((pyridin-3-yloxy)methyl)phenyl)-6-(trifluoromethyl)-1,2-dihydropyridine-3-carboxamide]	25 to 50 µM
